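Dose response: 5 concentrations. Exposure: 48 h. Format: 96-well plates. Endpoint: linear interpolation; highest concentration if not reached. At the GI50, growth is halved.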 Calls of active or inactive are those of the source. Rule as the data show it: active = GI50 up to about 1.1 µM and inactive = higher.
Key:
Experiment in all cases: NCI anticancer screen, dose series, 48 h
RPMI-8226 = tested on: RPMI-8226
IGROV-1 = tested on: IGROV-1
OVCAR-5 = tested on: OVCAR-5
LOX IMVI = tested on: LOX IMVI
UO-31 = tested on: UO-31
RXF 393 = tested on: RXF 393
UACC-257 = tested on: UACC-257
CAKI-1 = tested on: CAKI-1
M19-MEL = tested on: M19-MEL
SF-295 = tested on: SF-295
Malme-3M = tested on: Malme-3M
SK-OV-3 = tested on: SK-OV-3
KM12 = tested on: KM12
SNB-78 = tested on: SNB-78
A549 = tested on: A549
DMS-114 = tested on: DMS-114
NCI-H23 = tested on: NCI-H23
ACHN = tested on: ACHN
SN12C = tested on: SN12C
HCC 2998 = tested on: HCC 2998
SNB-19 = tested on: SNB-19
HT-29 = tested on: HT-29
TK-10 = tested on: TK-10
SR = tested on: SR
HL-60 = tested on: HL-60
OVCAR-3 = tested on: OVCAR-3
XF498 = tested on: XF498
SF-268 = tested on: SF-268
NCI-H522 = tested on: NCI-H522
HOP-62 = tested on: HOP-62
SK-MEL-5 = tested on: SK-MEL-5
OVCAR-4 = tested on: OVCAR-4
SW-620 = tested on: SW-620
DMS-273 = tested on: DMS-273
SNB-75 = tested on: SNB-75
HOP-18 = tested on: HOP-18
LXFL 529 = tested on: LXFL 529
EKVX = tested on: EKVX
SK-MEL-28 = tested on: SK-MEL-28
NCI-H226 = tested on: NCI-H226
A498 = tested on: A498
SK-MEL-2 = tested on: SK-MEL-2
786-0 = tested on: 786-0
HCT-15 = tested on: HCT-15
OVCAR-8 = tested on: OVCAR-8
HCT-116 = tested on: HCT-116
COLO 205 = tested on: COLO 205
NCI-H460 = tested on: NCI-H460
DLD-1 = tested on: DLD-1
M14 = tested on: M14
KM-20L2 = tested on: KM-20L2
MOLT-4 = tested on: MOLT-4
HOP-92 = tested on: HOP-92
K562 = tested on: K562
SF-539 = tested on: SF-539
CCRF-CEM = tested on: CCRF-CEM
UACC-62 = tested on: UACC-62
U-251 = tested on: U-251

Measured: GI50

CO[C@H]1CC[C@]2(C)C3=CC[C@@]4(C)C(CC[C@@H]4C(C)CC[C@@H](C)C(C)C)C(=CCC2C1)O3 (stereo partly drawn)
inactive: RPMI-8226 > 25 µM | IGROV-1 > 25 µM | OVCAR-5 > 25 µM | LOX IMVI > 25 µM | UO-31 > 25 µM | RXF 393 > 25 µM | UACC-257 > 25 µM | CAKI-1 10.2 µM | M19-MEL > 25 µM | SF-295 > 25 µM | Malme-3M > 25 µM | SK-OV-3 > 25 µM | KM12 > 25 µM | SNB-78 > 25 µM | A549 > 25 µM | DMS-114 > 25 µM | NCI-H23 > 7.91 µM | ACHN > 25 µM | SN12C > 25 µM | HCC 2998 > 25 µM | SNB-19 > 25 µM | HT-29 > 25 µM | TK-10 > 25 µM | SR > 25 µM | HL-60 > 25 µM | OVCAR-3 > 25 µM | XF498 > 25 µM | SF-268 > 25 µM | NCI-H522 > 25 µM | HOP-62 > 25 µM | SK-MEL-5 > 25 µM | OVCAR-4 > 25 µM | SW-620 > 25 µM | DMS-273 > 25 µM | SNB-75 > 25 µM | HOP-18 > 25 µM | LXFL 529 > 25 µM | EKVX > 25 µM | SK-MEL-28 > 25 µM | NCI-H226 > 16.5 µM | A498 > 25 µM | SK-MEL-2 > 25 µM | 786-0 > 25 µM | OVCAR-8 > 25 µM | HCT-116 > 25 µM | COLO 205 > 25 µM | NCI-H460 > 25 µM | DLD-1 > 25 µM | M14 > 25 µM | KM-20L2 > 25 µM | MOLT-4 > 25 µM | HOP-92 > 22.7 µM | K562 > 25 µM | SF-539 > 25 µM | CCRF-CEM > 25 µM | UACC-62 > 25 µM | U-251 > 25 µM
> 25 µM: HCT-15
